Experimental data from PubChem BioAssay AID330 (DTP/NCI, 2004).
Where “and” joins values, the source holds several entries; their conditions need not be identical. Identical values can stand only once. Toxic doses and inconclusive results are not listed.

Test system: P388 leukemia ip, CD2F1 mice, survival T/C
Assay: NCI In Vivo Anticancer Drug Screen. Data for tumor model P388 Leukemia (intraperitoneal) in CD2F1 (CDF1) mice
Conditions: endpoint: median survival time, higher = longer survival
Method in brief: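 Mice carrying the transplanted tumor received test compound or vehicle. Survival was recorded in each group, and the value is the treated-group measurement divided by that of the vehicle-treated control group.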

[1] = dose: 100.0 mg/kg/injection, schedule: Q04DX003 (ip), vehicle: saline with Tween-80
[2] = dose: 200.0 mg/kg/injection, schedule: Q04DX003 (ip), vehicle: saline with Tween-80
[3] = dose: 400.0 mg/kg/injection, schedule: Q04DX003 (ip), vehicle: saline with Tween-80
[4] = dose: 50.0 mg/kg/injection, schedule: Q01DX005 (ip), vehicle: saline with Tween-80
[5] = dose: 100.0 mg/kg/injection, schedule: Q01DX005 (ip), vehicle: saline with Tween-80
[6] = dose: 200.0 mg/kg/injection, schedule: Q01DX005 (ip), vehicle: saline with Tween-80
[7] = dose: 50.0 mg/kg/injection, schedule: Q01DX009 (ip), vehicle: Klucel (hydroxypropylcellulose) (HPC)
[8] = dose: 100.0 mg/kg/injection, schedule: Q01DX009 (ip), vehicle: Klucel (hydroxypropylcellulose) (HPC)
[9] = dose: 200.0 mg/kg/injection, schedule: Q01DX009 (ip), vehicle: Klucel (hydroxypropylcellulose) (HPC)
[10] = dose: 50.0 mg/kg/injection, schedule: Q01DX009 (ip), vehicle: saline with Tween-80
[11] = dose: 100.0 mg/kg/injection, schedule: Q01DX009 (ip), vehicle: saline with Tween-80
[12] = dose: 200.0 mg/kg/injection, schedule: Q01DX009 (ip), vehicle: saline with Tween-80
[13] = dose: 60.0 mg/kg/injection, schedule: Q01DX005 (ip), vehicle: saline with Tween-80
[14] = dose: 120.0 mg/kg/injection, schedule: Q01DX005 (ip), vehicle: saline with Tween-80
[15] = dose: 240.0 mg/kg/injection, schedule: Q01DX005 (ip), vehicle: saline with Tween-80
[16] = dose: 12.5 mg/kg/injection, schedule: Q01DX009 (ip), vehicle: saline

O=C(COc1ccc(Cl)cc1Cl)Nc1ccccc1F
T/C [1]: 100 % of control
T/C [2]: 100 % of control
T/C [3]: 100 % of control

CC1(C(=O)O)C2[Se]c3[se]ccc3C2C1(C)C(=O)O (centres undefined)
T/C [4]: 104 % of control
T/C [5]: 96 % of control
T/C [6]: 102 % of control

COC(=O)/C=C/c1c[nH]c2nccnc12
T/C (dose: 12.5 mg/kg/injection, schedule: Q01DX009 (ip), vehicle: Klucel (hydroxypropylcellulose) (HPC)): 98 % of control
T/C (dose: 25.0 mg/kg/injection, schedule: Q01DX009 (ip), vehicle: Klucel (hydroxypropylcellulose) (HPC)): 100 % of control
T/C [7]: 102 % of control
T/C [8]: 100 % of control
T/C [9]: 98 % of control

c1ccc(N2N=NC3CCOC32)cc1 (centres undefined)
T/C [4]: 94 % of control
T/C [5]: 102 % of control
T/C [6]: 106 % of control

ClCCCCOCBr
T/C (dose: 60.0 mg/kg/injection, schedule: Q01DX005 (ip), vehicle: saline): 93 % of control
T/C (dose: 240.0 mg/kg/injection, schedule: Q01DX005 (ip), vehicle: saline): 87 % of control

OCCN1CCOCC1
T/C [1]: 95 % of control
T/C [2]: 95 % of control
T/C [3]: 95 % of control

CCOC(=O)C(=CNc1ccc2n[nH]nc2c1)C(=O)OCC
T/C [7]: 100 % of control
T/C [8]: 108 % of control

[I][Pt+2][I].[NH-]CC[NH-]
T/C (dose: 2.75 mg/kg/injection, schedule: Q01DX009 (ip), vehicle: Klucel (hydroxypropylcellulose) (HPC)): 87 % of control
T/C (dose: 5.5 mg/kg/injection, schedule: Q01DX009 (ip), vehicle: Klucel (hydroxypropylcellulose) (HPC)): 117 % of control
T/C (dose: 11.0 mg/kg/injection, schedule: Q01DX009 (ip), vehicle: Klucel (hydroxypropylcellulose) (HPC)): 109 % of control
T/C (dose: 22.0 mg/kg/injection, schedule: Q01DX009 (ip), vehicle: Klucel (hydroxypropylcellulose) (HPC)): 111 % of control

CC(=O)C1=C(C)C2CC3(C)CC(C2(C)C1)C3(C)C (centres undefined)
T/C [4]: 100 % of control
T/C [5]: 102 % of control
T/C [6]: 100 % of control

C=C(NC(C)=O)C(=O)CCC(N)=O
T/C (dose: 5.0 mg/kg/injection, schedule: Q01DX009 (ip), vehicle: saline sonified): 109 % of control
T/C (dose: 10.0 mg/kg/injection, schedule: Q01DX009 (ip), vehicle: saline sonified): 109 % of control
T/C (dose: 20.0 mg/kg/injection, schedule: Q01DX009 (ip), vehicle: saline sonified): 104 % of control

CC(CC(=O)c1ccccc1)=NCC(O)CN=C(C)CC(=O)c1ccccc1 (centres undefined)
T/C [10]: 96 % of control
T/C [11]: 94 % of control
T/C [12]: 93 % of control

COC(=O)C(C)CC(C)(CC(C)(CC(C)(C)C(=O)OC)C(=O)OC)C(=O)OC (centres undefined) (tested in a mixture with another compound)
T/C [13]: 100 % of control
T/C [14]: 96 % of control
T/C [15]: 100 % of control

CCC1=[N+](C)C(C)(C)CC(C)O1 (centres undefined)
T/C (dose: 12.5 mg/kg/injection, schedule: Q04DX003 (ip), vehicle: saline with Tween-80): 100 % of control
T/C (dose: 25.0 mg/kg/injection, schedule: Q04DX003 (ip), vehicle: saline with Tween-80): 100 % of control
T/C (dose: 50.0 mg/kg/injection, schedule: Q04DX003 (ip), vehicle: saline with Tween-80): 95 % of control

CC(=O)C(=O)c1ccc(O)c(C)c1O
T/C [10]: 107 % of control
T/C [11]: 104 % of control
T/C [12]: 105 % of control

COc1ccc(NC(=O)Oc2ccc3c(C)cc(=O)oc3c2)c(OC)c1
T/C [11]: 122 % of control
T/C [12]: 121 % of control
T/C (dose: 400.0 mg/kg/injection, schedule: Q01DX009 (ip), vehicle: saline with Tween-80): 91 % of control

CC1=C(C(=O)Nc2cc(O)ccc2O)C(c2cccc([N+](=O)[O-])c2)C(C(=O)Nc2cc(O)ccc2O)=C(C)N1
T/C (dose: 7.5 mg/kg/injection, schedule: Q01DX005 (ip), vehicle: Klucel (hydroxypropylcellulose) (HPC)): 98 % of control
T/C (dose: 15.0 mg/kg/injection, schedule: Q01DX005 (ip), vehicle: Klucel (hydroxypropylcellulose) (HPC)): 93 % of control
T/C (dose: 30.0 mg/kg/injection, schedule: Q01DX005 (ip), vehicle: Klucel (hydroxypropylcellulose) (HPC)): 100 % of control

C#CC[N+]12CN3CN(CN(C3)C1)C2
T/C [16]: 98 % of control
T/C (dose: 25.0 mg/kg/injection, schedule: Q01DX009 (ip), vehicle: saline): 99 % of control
T/C (dose: 50.0 mg/kg/injection, schedule: Q01DX009 (ip), vehicle: saline): 99 % of control
T/C (dose: 100.0 mg/kg/injection, schedule: Q01DX009 (ip), vehicle: saline): 116 % of control

CN(c1ccccc1)C1CS(=O)(=O)OC2=C1CCCC2 (centres undefined)
T/C [10]: 98 % of control
T/C [11]: 102 % of control
T/C [12]: 104 % of control

C[n+]1c2ccccc2c(Cc2ccccc2)c2ccccc21
T/C (dose: 12.5 mg/kg/injection, schedule: Q01DX005 (ip), vehicle: saline with Tween-80): 108 % of control
T/C (dose: 25.0 mg/kg/injection, schedule: Q01DX005 (ip), vehicle: saline with Tween-80): 106 % of control
T/C [4]: 100 % of control and 94 % of control

O=C(Nc1ccc(Nc2ccncc2)cc1)c1ccc([N+](=O)[O-])cc1
T/C [8]: 90 % of control
T/C [9]: 100 % of control
T/C (dose: 400.0 mg/kg/injection, schedule: Q01DX009 (ip), vehicle: Klucel (hydroxypropylcellulose) (HPC)): 90 % of control

CN(C)CCNC1=C(Cl)C(=O)c2ccccc2C1=O
T/C (dose: 3.13 mg/kg/injection, schedule: Q01DX009 (ip), vehicle: saline): 95 % of control
T/C (dose: 6.25 mg/kg/injection, schedule: Q01DX009 (ip), vehicle: saline): 94 % of control
T/C [16]: 97 % of control

O=C1/C(=C/c2ccc([N+](=O)[O-])cc2)Cc2c1cccc2[N+](=O)[O-]
T/C (dose: 25.0 mg/kg/injection, schedule: Q01DX001 (ip), vehicle: saline with Tween-80): 98 % of control
T/C (dose: 50.0 mg/kg/injection, schedule: Q01DX001 (ip), vehicle: saline with Tween-80): 98 % of control
T/C (dose: 100.0 mg/kg/injection, schedule: Q01DX001 (ip), vehicle: saline with Tween-80): 99 % of control and 95 % of control
T/C (dose: 200.0 mg/kg/injection, schedule: Q01DX001 (ip), vehicle: saline with Tween-80): 93 % of control
T/C (dose: 400.0 mg/kg/injection, schedule: Q01DX001 (ip), vehicle: saline with Tween-80): 89 % of control

CCCCCOCc1cc(C)no1
T/C [13]: 104 % of control
T/C [14]: 109 % of control
T/C [15]: 104 % of control

CS(=O)(=O)OCC(COS(C)(=O)=O)(COS(C)(=O)=O)COS(C)(=O)=O
T/C [7]: 93 % of control
T/C [8]: 99 % of control
T/C [9]: 94 % of control

O=C1CC(=O)N(CCc2ccncc2)C(=O)N1CCc1ccncc1
T/C (dose: 50.0 mg/kg/injection, schedule: Q01DX005 (ip), vehicle: saline): 106 % of control
T/C (dose: 100.0 mg/kg/injection, schedule: Q01DX005 (ip), vehicle: saline): 106 % of control

CCC12C=CCN3CC[C@@]4(c5cc([C@@]6(C(=O)OC)C[C@@H]7CN(CCc8c6[nH]c6ccccc86)C[C@](O)(CC)C7)c(OC)cc5N(C)[C@H]4[C@@](O)(C(=O)NCCCCCCCCCCCC(=O)O)[C@@H]1O)C32 (some centres undefined)
T/C (dose: 11.25 mg/kg/injection, schedule: Q01DX001 (ip), vehicle: other): 164 % of control
T/C (dose: 11.25 mg/kg/injection, schedule: Q01DX001 (ip), vehicle: saline with Tween-80): 153 % of control
T/C (dose: 11.25 mg/kg/injection, schedule: Q01DX001 (ip), vehicle: saline): 189 % of control
T/C (dose: 22.5 mg/kg/injection, schedule: Q01DX001 (ip), vehicle: saline with Tween-80): 164 % of control
T/C (dose: 45.0 mg/kg/injection, schedule: Q01DX001 (ip), vehicle: saline with Tween-80): 182 % of control

CCOc1ccc2nc3cc(N=Nc4ccc(N(C)C)cc4)ccc3c(N)c2c1
T/C [10]: 110 % of control
T/C [11]: 110 % of control

Nc1nc2c(c(=O)[nH]1)NC(CN(C(=O)CCCl)c1ccc(C(=O)NC(CCC(=O)O)C(=O)O)cc1)CN2 (centres undefined)
T/C (dose: 50.0 mg/kg/injection, schedule: Q01DX001 (ip), vehicle: alkali diluted with saline): 101 % of control
T/C (dose: 100.0 mg/kg/injection, schedule: Q01DX001 (ip), vehicle: alkali diluted with saline): 104 % of control
T/C (dose: 200.0 mg/kg/injection, schedule: Q01DX001 (ip), vehicle: alkali diluted with saline): 101 % of control

CCOC(=O)CCCn1nc(-c2ccc(Cl)cc2)c(-c2ccc(Cl)cc2)c(C#N)c1=O
T/C (dose: 100.0 mg/kg/injection, schedule: Q04DX002 (ip), vehicle: saline with Tween-80): 123 % of control
